In patent US20240148821A1, “PHARMACEUTICAL USE OF CYCLIC PEPTIDE COMPOUND” (CHUGAI SEIYAKU KABUSHIKI KAISHA, priority 2021, published 2024):
Numbered stars: 1 amine (or outer) side, 2 acyl side, 3 side chain; on linkers, the order of the positions; unused ones are H or OH. Bridge positions count the residues as written; N and C are the ends. Square brackets hold non-standard residues; d marks the D form. Peptide text beside a SMILES is read from it. * marks the point of attachment. hPhe(3-Cl-4-CF3) = N[C@@H](CCc1ccc(C(F)(F)F)c(Cl)c1)C(=O)O; hPhe(3-F,4-CF3) = N[C@@H](CCc1ccc(C(F)(F)F)c(F)c1)C(=O)O; hPhe(4-CF3) = N[C@@H](CCc1ccc(C(F)(F)F)cc1)C(=O)O; dβ3h(hPhe) = O=C(C[C@@H](CCc1ccccc1)N[*:1])[*:2]; 3Oxa8azabicyclo(3.2.1)octane = C1CC2COCC1N2*; NMePhe(4-Cl) = CN[C@@H](Cc1ccc(Cl)cc1)C(=O)O; X111 = CN([C@@H](CCC1CCOCC1)C(=O)[*:2])[*:1]; NEtPhe(2-Cl) = CCN[C@@H](Cc1ccccc1Cl)C(=O)O; NMePhe(4-Me) = CN[C@@H](Cc1ccc(C)cc1)C(=O)O; NMedβ3hAla = C[C@H](CC(=O)[*:2])N(C)[*:1]; NMeAla(cPent) = CN[C@@H](CC1CCCC1)C(=O)O; NMeGly(cPent) = CN[C@H](C(=O)O)C1CCCC1; NMeCha = CN[C@@H](CC1CCCCC1)C(=O)O; cisHyp = O=C(O)[C@@H]1C[C@H](O)CN1; X82 = O=C(CN(CCC1CNC1)[*:1])[*:2]; Hyp = O=C(O)[C@@H]1C[C@@H](O)CN1; NMeAhp(2) = CCCCC[C@H](NC)C(=O)O; NMeChg = CN[C@H](C(=O)O)C1CCCCC1; NMeF = CN[C@@H](Cc1ccccc1)C(=O)O; NMeI = CC[C@H](C)[C@H](NC)C(=O)O; Gly(cBu) = N[C@H](C(=O)O)C1CCC1; NMeD = CN[C@@H](CC(=O)O)C(=O)O; NMeL = CN[C@@H](CC(C)C)C(=O)O; Tle = CC(C)(C)[C@H](N)C(=O)O; NMeV = CN[C@H](C(=O)O)C(C)C; d(β3hA) = C[C@@H](N)CC(=O)O; NMeS = CN[C@@H](CO)C(=O)O; Morpholide = C1CN(*)CCO1; NMeA = CN[C@@H](C)C(=O)O; Nle = CCCC[C@H](N)C(=O)O; Piperidide = C1CCN(*)CC1; Pyrrolidide = C1CCN(*)C1; Ac5c = NC1(C(=O)O)CCCC1; Aze = O=C(O)[C@@H]1CCN1; X9 = c1cncc(C*)c1; Sar = CNCC(=O)O; Propyl = CCC*

Molecular target: protein-protein interaction between Kras and SOS1 (biotin-tagged human Kras loaded with GDP, His-tagged human SOS1) (Homo sapiens (Human), UniProt P01116, G12D)
Test: Protein-protein interaction inhibition between Kras and SOS1 (KrasG12D-SOS PPI) using AlphaScreen;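 also: kras produced in E. coli, Ni-coupled donor beads and streptavidin acceptor beads, excitation 680 nm with emission detected at 520–620 nm via singlet oxygen transfer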
Format: biochemical
Conditions: AlphaScreen; biotin-tagged human Kras loaded with GDP, His-tagged human SOS1; read-out: KRAS G12D-SOS PPI IC50

Row | SMILES | IC50
1 | CC[C@H](C)[C@@H]1NC(=O)[C@H](CC(C)C)N(C)C(=O)C[C@@H](C(=O)N2CCCCC2)N(C)C(=O)[C@H](C2CCCCC2)N(C)C(=O)C2(CCCC2)NC(=O)[C@H](CCC2CCOCC2)N(C)C(=O)[C@H](CCc2ccc(C(F)(F)F)c(Cl)c2)NC(=O)CN(C)C(=O)[C@H](CC2CCCCC2)N(C)C(=O)CN(C)C(=O)CN(C)C1=O [Compound 2048, (8S,11S,17S,26S,29S,33S,36S)-11-[2-[3-chloro-4-(trifluoromethyl)phenyl]ethyl]-36-cyclohexyl-17-(cyclohexylmethyl)-29-isobutyl-9,15,18,21,24,30,34,37-octamethyl-26-[(1S)-1-methylpropyl]-33-(piperidine-1-carbonyl)-8-(2-tetrahydropyran-4-ylethyl)-6,9,12,15,18,21,24,27,30,34,37-undecazaspiro[4.33]octatriacontane-7,10,13,16,19,22,25,28,31,35,38-undecone] ([NMeL]I[Sar][Sar][NMeCha][Sar][hPhe(3-Cl-4-CF3)][X111][Ac5c][NMeChg][NMeD]-Piperidide; lactam N-11) | 3.5 nM
2 | CCCOC[C@H]1C(=O)N(C)CC(=O)N[C@@H](CCc2ccc(C(F)(F)F)c(F)c2)C(=O)N2CCC[C@H]2C(=O)NC2(CCCC2)C(=O)N(C)[C@@H]([C@@H](C)CC)C(=O)N(C)[C@H](C)CC(=O)N(C)[C@@H](CC(C)C)C(=O)N[C@@H]([C@@H](C)CC)C(=O)N(C)[C@@H](C)C(=O)N2CC[C@H]2C(=O)N1C [Compound 694] (cyclo([Ac5c][NMeI][NMedβ3hAla][NMeL]I[NMeA][Aze][NMeS](Propyl)[Sar][hPhe(3-F,4-CF3)]P)) | 14 nM
3 | CC[C@H](C)[C@@H]1NC(=O)[C@H](CC(C)C)N(C)C(=O)C[C@@H](CCc2ccccc2)NC(=O)[C@H]([C@@H](C)CC)N(C)C(=O)C2(CCCC2)NC(=O)[C@@H]2CCCN2C(=O)[C@H](CCc2ccc(C(F)(F)F)c(Cl)c2)NC(=O)CN(C)C(=O)[C@H](Cc2ccc(C)cc2)N(C)C(=O)[C@@H]2CCN2C(=O)[C@H](C)N(C)C1=O [Compound 1874] (cyclo([Ac5c][NMeI][dβ3h(hPhe)][NMeL]I[NMeA][Aze][NMePhe(4-Me)][Sar][hPhe(3-Cl-4-CF3)]P)) | 400 nM
4 | CC[C@H](C)[C@@H]1NC(=O)[C@H](CC(C)C)N(C)C(=O)C[C@@H](C(=O)N(C)C)N(C)C(=O)[C@H](C2CCCC2)N(C)C(=O)C2(CCCC2)NC(=O)CN(CCC2CNC2)C(=O)[C@H](CCc2ccc(C(F)(F)F)c(F)c2)NC(=O)CN(C)C(=O)[C@H](CC2CCCCC2)N(C)C(=O)[C@@H]2CCN2C(=O)[C@H](C)N(C)C1=O [Compound 2182, (3S,6S,9S,13S,16S,25S,31S,34S)-23-[2-(azetidin-3-yl)ethyl]-31-(cyclohexylmethyl)-16-cyclopentyl-25-[2-[3-fluoro-4-(trifluoromethyl)phenyl]ethyl]-9-isobutyl-N,N,3,4,10,14,17,29,32-nonamethyl-6-[(1S)-1-methylpropyl]-2,5,8,11,15,18,21,24,27,30,33-undecaoxo-spiro[1,4,7,10,14,17,20,23,26,29,32-undecazabicyclo[32.2.0]hexatriacontane-19,1′-cyclopentane]-13-carboxamide] ([NMeL]I[NMeA][Aze][NMeCha][Sar][hPhe(3-F,4-CF3)][X82][Ac5c][NMeGly(cPent)][NMeD]-NMe2; lactam N-11) | 3.6 nM
5 | CC[C@H](C)[C@@H]1NC(=O)[C@H](C)N(C)C(=O)C[C@@H](C)NC(=O)[C@H](CC(C)C)N(C)C(=O)[C@H](Cc2ccccc2)N(C)C(=O)[C@H](C)N(C)C(=O)[C@H](CCc2ccc(C(F)(F)F)cc2)NC(=O)CN(C)C(=O)[C@H](Cc2ccc(Cl)cc2)N(C)C(=O)CN(C)C(=O)CN(C)C1=O [Compound 978] (cyclo(I[Sar][Sar][NMePhe(4-Cl)][Sar][hPhe(4-CF3)][NMeA][NMeF][NMeL][d(β3hA)][NMeA])) | 170 nM
6 | CC[C@H](C)[C@@H]1NC(=O)[C@H](CC2CCCC2)N(C)C(=O)C[C@@H](C(=O)N2CCOCC2)N(C)C(=O)[C@H](C2CCCC2)N(C)C(=O)C2(CCCC2)NC(=O)[C@@H]2CCCN2C(=O)[C@H](CCc2ccc(C(F)(F)F)c(Cl)c2)NC(=O)CN(C)C(=O)[C@H](CC2CCCCC2)N(C)C(=O)[C@@H]2CCN2C(=O)[C@H](C)NC1=O [Compound 1176] ([NMeAla(cPent)]IA[Aze][NMeCha][Sar][hPhe(3-Cl-4-CF3)]P[Ac5c][NMeGly(cPent)][NMeD]-Morpholide; lactam N-11) | 0.8 nM
7 | CC[C@H](C)[C@@H]1NC(=O)[C@H](CC(C)C)N(C)C(=O)C[C@@H](C(=O)N2CCCC2)N(C)C(=O)[C@H](C(C)C)N(C)C(=O)C2(CCCC2)NC(=O)[C@@H]2CCCN2C(=O)[C@H](CCc2ccc(C(F)(F)F)c(Cl)c2)NC(=O)CN(C)C(=O)[C@H](Cc2ccc(C)cc2)N(C)C(=O)[C@@H]2CCN2C(=O)[C@H](C)N(C)C1=O [Compound 1866] ([NMeL]I[NMeA][Aze][NMePhe(4-Me)][Sar][hPhe(3-Cl-4-CF3)]P[Ac5c][NMeV][NMeD]-Pyrrolidide; lactam N-11) | 2.8 nM
8 | CC[C@H](C)[C@@H]1NC(=O)[C@H](C)N(C)C(=O)C[C@@H](C)NC(=O)[C@H](CC(C)C)N(C)C(=O)[C@H](Cc2ccccc2)N(C)C(=O)[C@H](C(C)(C)C)NC(=O)[C@H](CCc2ccc(C(F)(F)F)cc2)NC(=O)CN(C)C(=O)[C@H](Cc2ccc(Cl)cc2)N(C)C(=O)CN(C)C(=O)CN(C)C1=O [Compound 764] (cyclo(I[Sar][Sar][NMePhe(4-Cl)][Sar][hPhe(4-CF3)][Tle][NMeF][NMeL][d(β3hA)][NMeA])) | 83 nM
9 | CC(C)C[C@H]1C(=O)N[C@@H](C2CCC2)C(=O)N(C)[C@@H](C)C(=O)N2CC[C@H]2C(=O)N(C)[C@@H](CC2CCCCC2)C(=O)N(C)CC(=O)N[C@@H](CCc2ccc(C(F)(F)F)c(Cl)c2)C(=O)N2CCC[C@H]2C(=O)NC2(CCCC2)C(=O)N(C)[C@@H](C(C)C)C(=O)N[C@H](C)CC(=O)N1C [Compound 580] (cyclo([Ac5c][NMeV][d(β3hA)][NMeL][Gly(cBu)][NMeA][Aze][NMeCha][Sar][hPhe(3-Cl-4-CF3)]P)) | 66 nM
10 | CC[C@H](C)[C@@H]1NC(=O)[C@H](CC(C)C)N(C)C(=O)C[C@@H](C(=O)N2CCOCC2)N(C)C(=O)[C@H]([C@@H](C)CC)N(C)C(=O)C2(CCCC2)NC(=O)[C@@H]2CCCN2C(=O)[C@H](CCc2ccc(C(F)(F)F)c(F)c2)NC(=O)CN(C)C(=O)[C@H](CC2CCCCC2)N(C)C(=O)[C@@H]2CCN2C(=O)[C@H](C)N(C)C1=O [Compound 790] ([NMeL]I[NMeA][Aze][NMeCha][Sar][hPhe(3-F,4-CF3)]P[Ac5c][NMeI][NMeD]-Morpholide; lactam N-11) | 2.5 nM
11 | CC[C@H](C)[C@@H]1NC(=O)[C@H](C)N(C)C(=O)C[C@@H](C(=O)N(C)C)N(C)C(=O)[C@H]([C@@H](C)CC)N(C)C(=O)C2(CCCC2)NC(=O)[C@H](Cc2ccccc2Cl)N(CC)C(=O)[C@H](CCc2ccc(C(F)(F)F)c(Cl)c2)NC(=O)CN(C)C(=O)[C@H](Cc2ccc(C)cc2)N(C)C(=O)[C@@H]2CCN2C(=O)[C@H](C)N(C)C1=O [Compound 2163] ([NMeA]I[NMeA][Aze][NMePhe(4-Me)][Sar][hPhe(3-Cl-4-CF3)][NEtPhe(2-Cl)][Ac5c][NMeI][NMeD]-NMe2; lactam N-11) | 73 nM
12 | CCO[C@@H]1C[C@H]2C(=O)NC3(CCCC3)C(=O)N(C)[C@@H](CC(C)C)C(=O)N(C)[C@H](C)CC(=O)N(C)[C@@H](CC(C)C)C(=O)N[C@@H]([C@@H](C)CC)C(=O)N(C)CC(=O)N(C)CC(=O)N(C)[C@@H](CC3CCCCC3)C(=O)N(C)CC(=O)N[C@@H](CCc3ccc(C(F)(F)F)c(Cl)c3)C(=O)N2C1 [Compound 1851] (cyclo([Ac5c][NMeL][NMedβ3hAla][NMeL]I[Sar][Sar][NMeCha][Sar][hPhe(3-Cl-4-CF3)][Hyp](Et))) | 2.5 nM
13 | CCCC[C@@H]1NC(=O)[C@H](CCc2ccc(C(F)(F)F)c(Cl)c2)NC(=O)CN(C)C(=O)[C@H](Cc2ccc(Cl)cc2)N(C)C(=O)CN(C)C(=O)CN(C)C(=O)[C@H]([C@@H](C)CC)NC(=O)[C@H](CC(C)C)N(C)C(=O)C[C@@H](C)N(C)C(=O)[C@H](CC(C)C)NC(=O)[C@H](Cc2ccccc2)N(C)C1=O [Compound 566] (cyclo(I[Sar][Sar][NMePhe(4-Cl)][Sar][hPhe(3-Cl-4-CF3)][Nle][NMeF]L[NMedβ3hAla][NMeL])) | 160 nM
14 | CC[C@H](C)[C@@H]1NC(=O)[C@H](CC(C)C)N(C)C(=O)C[C@@H](C(=O)N2CCCCC2)N(C)C(=O)[C@H](C2CCCCC2)N(C)C(=O)C2(CCCC2)NC(=O)[C@@H]2C[C@H](OCc3cccnc3)CN2C(=O)[C@H](CCc2ccc(C(F)(F)F)c(Cl)c2)NC(=O)CN(C)C(=O)[C@H](CC2CCCCC2)N(C)C(=O)CN(C)C(=O)CN(C)C1=O [Compound 2120] ([NMeL]I[Sar][Sar][NMeCha][Sar][hPhe(3-Cl-4-CF3)][cisHyp](X9)[Ac5c][NMeChg][NMeD]-Piperidide; lactam N-11) | 1 nM
15 | CCCCC[C@H]1C(=O)N[C@@H]([C@@H](C)CC)C(=O)N[C@@H](C)C(=O)N2CC[C@H]2C(=O)N(C)[C@@H](COCCC)C(=O)N(C)CC(=O)N[C@@H](CCc2ccc(C(F)(F)F)c(Cl)c2)C(=O)N2CCC[C@H]2C(=O)NC2(CCCC2)C(=O)N(C)[C@@H](C2CCCC2)C(=O)N(C)[C@H](C(=O)N2C3CCC2COC3)CC(=O)N1C [Compound 163] ([NMeAhp(2)]IA[Aze][NMeS](Propyl)[Sar][hPhe(3-Cl-4-CF3)]P[Ac5c][NMeGly(cPent)][NMeD]-{3Oxa8azabicyclo(3.2.1)octane}; lactam N-11) | 6.1 nM
16 | CC[C@H](C)[C@@H]1NC(=O)[C@H](CC(C)C)N(C)C(=O)C[C@@H](C)NC(=O)[C@H](C(C)C)N(C)C(=O)C2(CCCC2)NC(=O)[C@@H]2CCCN2C(=O)[C@H](CCc2ccc(C(F)(F)F)c(Cl)c2)NC(=O)CN(C)C(=O)[C@H](CC2CCCCC2)N(C)C(=O)[C@@H]2CCN2C(=O)[C@@H]2CCN2C1=O [Compound 181] (cyclo([Ac5c][NMeV][d(β3hA)][NMeL]I[Aze][Aze][NMeCha][Sar][hPhe(3-Cl-4-CF3)]P)) | 130 nM
